Reference: PubChem BioAssay AID248 (DTP/NCI, 2004)
Where “and” joins values, the source holds several entries; their conditions need not be identical. Equal entries are not always repeated. Inconclusive results and toxic doses are left out. Rule as the data show it: active = T/C of 150% or more; inactive = T/C below 125%.

Test system: L1210 leukemia ip in BDF1 mice, survival T/C
Test: NCI In Vivo Anticancer Drug Screen. Data for tumor model L1210 Leukemia (intraperitoneal) in B6D2F1 (BDF1) mice
Conditions: endpoint: mean survival time, higher = longer survival
Procedure, shortened: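 Read-out is survival time, reported as the treated-group measurement over the vehicle-control measurement.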

[1] = dose: 100.0 mg/kg/injection, schedule: Q01DX009 (ip), vehicle: saline with Tween-80
[2] = dose: 50.0 mg/kg/injection, schedule: Q01DX001 (ip), vehicle: saline
[3] = dose: 100.0 mg/kg/injection, schedule: Q01DX001 (ip), vehicle: saline
[4] = dose: 200.0 mg/kg/injection, schedule: Q01DX001 (ip), vehicle: saline
[5] = dose: 100.0 mg/kg/injection, schedule: Q04DX003 (ip), vehicle: saline
[6] = dose: 100.0 mg/kg/injection, schedule: Q01DX001 (ip), vehicle: saline with Tween-80

Measured: T/C

C=C1CC(CCCCCC2CC(=C)C(=O)O2)OC1=O (centres undefined)
inactive: dose: 12.5 mg/kg/injection, schedule: Q04DX002 (ip), vehicle: saline 94 % of control | dose: 25.0 mg/kg/injection, schedule: Q04DX002 (ip), vehicle: saline 94 % of control | dose: 50.0 mg/kg/injection, schedule: Q04DX002 (ip), vehicle: saline 102 % of control

CN(C)c1ncnc2c1cnn2C
inactive: dose: 100.0 mg/kg/injection, schedule: Q01DX001 (ip), vehicle: carboxymethylcellulose (CMC) 96 % of control | dose: 200.0 mg/kg/injection, schedule: Q01DX001 (ip), vehicle: carboxymethylcellulose (CMC) 110 % of control

CC(OCCO)C1CCC2C3CCC4=CC(=O)CCC4(C)C3C(O)C(C)C12C (centres undefined)
inactive: dose: 50.0 mg/kg/injection, schedule: Q01DX001 (sc), vehicle: steriod suspending solution 102 % of control | dose: 100.0 mg/kg/injection, schedule: Q01DX001 (sc), vehicle: steriod suspending solution 100 % of control | dose: 200.0 mg/kg/injection, schedule: Q01DX001 (sc), vehicle: steriod suspending solution 110 % of control | dose: 400.0 mg/kg/injection, schedule: Q01DX001 (sc), vehicle: steriod suspending solution 102 % of control

Cc1nnc2c3ccccc3cnn12
inactive: dose: 75.0 mg/kg/injection, schedule: Q01DX001 (ip), vehicle: carboxymethylcellulose (CMC) 98 % of control | dose: 150.0 mg/kg/injection, schedule: Q01DX001 (ip), vehicle: carboxymethylcellulose (CMC) 97 % of control | dose: 300.0 mg/kg/injection, schedule: Q01DX001 (ip), vehicle: carboxymethylcellulose (CMC) 98 % of control

O=C1Cc2ccccc2O1
inactive: dose: 50.0 mg/kg/injection, schedule: Q01DX009 (ip), vehicle: saline with Tween-80 101 % of control | [1] 96 % of control

Cc1nnc2c3ccccc3ccn12
inactive: [2] 101 % of control | [3] 101 % of control | [4] 103 % of control

O=C(O)/C(=C/c1ccccc1)c1ccc2ccccc2c1Br
inactive: dose: 100.0 mg/kg/injection, schedule: Q01DX009 (ip), vehicle: Klucel (hydroxypropylcellulose) (HPC) 107 % of control | dose: 100.0 mg/kg/injection, schedule: Q04DX003 (ip), vehicle: other 100 % of control | dose: 200.0 mg/kg/injection, schedule: Q01DX009 (ip), vehicle: Klucel (hydroxypropylcellulose) (HPC) 95 % of control | dose: 200.0 mg/kg/injection, schedule: Q04DX003 (ip), vehicle: other 100 % of control | dose: 400.0 mg/kg/injection, schedule: Q01DX009 (ip), vehicle: Klucel (hydroxypropylcellulose) (HPC) 109 % of control | dose: 400.0 mg/kg/injection, schedule: Q04DX003 (ip), vehicle: other 95 % of control

N#CC(c1ccccc1)C(c1ccccc1)C(C(=O)c1ccccc1)c1ccccc1 (centres undefined)
inactive: [1] 100 % of control | dose: 200.0 mg/kg/injection, schedule: Q01DX009 (ip), vehicle: saline with Tween-80 93 % of control | dose: 400.0 mg/kg/injection, schedule: Q01DX009 (ip), vehicle: saline with Tween-80 90 % of control

CCN(CC)CCCC(C)Nc1cc(N)c2ncc(-c3ccc(Cl)cc3)nc2n1 (centres undefined)
inactive: dose: 75.0 mg/kg/injection, schedule: Q01DX001 (ip), vehicle: saline 96 % of control | dose: 150.0 mg/kg/injection, schedule: Q01DX001 (ip), vehicle: saline 102 % of control

CCCCCCCCS.[Ni]
inactive: dose: 6.0 mg/kg/injection, schedule: Q01DX009 (ip), vehicle: Klucel (hydroxypropylcellulose) (HPC) 100 % of control | dose: 12.0 mg/kg/injection, schedule: Q01DX009 (ip), vehicle: Klucel (hydroxypropylcellulose) (HPC) 92 % of control | dose: 25.0 mg/kg/injection, schedule: Q01DX009 (ip), vehicle: Klucel (hydroxypropylcellulose) (HPC) 92 % of control | [5] 102 % of control

Cc1cc(NC(=O)CCc2ccc(N3C(N)=NC(N)=NC3(C)C)cc2)ccc1S(=O)(=O)F
inactive: dose: 4.0 mg/kg/injection, schedule: Q03HX024 (ip), vehicle: other 104 % of control | dose: 7.82 mg/kg/injection, schedule: Q12HX018 (ip), vehicle: acetone 106 % of control | dose: 8.0 mg/kg/injection, schedule: Q03HX008 (ip), vehicle: other 117 % of control | dose: 8.0 mg/kg/injection, schedule: Q03HX024 (ip), vehicle: other 114 % of control | dose: 15.62 mg/kg/injection, schedule: Q12HX018 (ip), vehicle: acetone 105 % of control | dose: 16.0 mg/kg/injection, schedule: Q01DX009 (ip), vehicle: other 112 % of control | dose: 16.0 mg/kg/injection, schedule: Q03HX008 (ip), vehicle: other 104 % of control | dose: 16.0 mg/kg/injection, schedule: Q03HX024 (ip), vehicle: other 114 % of control | dose: 18.0 mg/kg/injection, schedule: Q## X018 (ip), vehicle: saline 118 % of control | dose: 25.0 mg/kg/injection, schedule: Q01DX001 (ip), vehicle: Klucel (hydroxypropylcellulose) (HPC) 103 % of control | dose: 31.25 mg/kg/injection, schedule: Q12HX018 (ip), vehicle: acetone 113 % of control | dose: 32.0 mg/kg/injection, schedule: Q01DX009 (ip), vehicle: other 120 % of control | dose: 32.0 mg/kg/injection, schedule: Q03HX008 (ip), vehicle: other 109 % of control | dose: 32.0 mg/kg/injection, schedule: Q03HX024 (ip), vehicle: other 117 % of control | dose: 32.0 mg/kg/injection, schedule: Q04DX003 (ip), vehicle: other 109 % of control | dose: 50.0 mg/kg/injection, schedule: Q01DX001 (ip), vehicle: Klucel (hydroxypropylcellulose) (HPC) 105 % of control | dose: 64.0 mg/kg/injection, schedule: Q01DX001 (ip), vehicle: other 95 % of control | dose: 64.0 mg/kg/injection, schedule: Q01DX009 (ip), vehicle: other 117 % of control | dose: 64.0 mg/kg/injection, schedule: Q03HX008 (ip), vehicle: other 111 % of control | dose: 64.0 mg/kg/injection, schedule: Q04DX003 (ip), vehicle: other 104 % of control | dose: 100.0 mg/kg/injection, schedule: Q01DX001 (ip), vehicle: Klucel (hydroxypropylcellulose) (HPC) 101 % of control and 92 % of control | dose: 200.0 mg/kg/injection, schedule: Q01DX001 (ip), vehicle: Klucel (hydroxypropylcellulose) (HPC) 92 % of control | dose: 400.0 mg/kg/injection, schedule: Q01DX001 (ip), vehicle: Klucel (hydroxypropylcellulose) (HPC) 92 % of control

CCOC(=O)/C=C(\N)c1ccccc1
inactive: dose: 100.0 mg/kg/injection, schedule: Q04DX002 (ip), vehicle: saline with Tween-80 102 % of control | dose: 200.0 mg/kg/injection, schedule: Q04DX002 (ip), vehicle: saline with Tween-80 108 % of control | dose: 400.0 mg/kg/injection, schedule: Q04DX002 (ip), vehicle: saline with Tween-80 91 % of control

[N-]=[N+]=NCc1nnc2ncnc(N)c2n1
inactive: dose: 25.0 mg/kg/injection, schedule: Q01DX009 (ip), vehicle: saline with Tween-80 88 % of control | dose: 25.0 mg/kg/injection, schedule: Q04DX003 (ip), vehicle: saline with Tween-80 94 % of control | dose: 50.0 mg/kg/injection, schedule: Q04DX003 (ip), vehicle: saline with Tween-80 105 % of control | [6] 95 % of control | dose: 100.0 mg/kg/injection, schedule: Q04DX003 (ip), vehicle: saline with Tween-80 102 % of control

C/C=C/C=C/COC(=O)CCCCCCCC
inactive: dose: 100.0 mg/kg/injection, schedule: Q04DX002 (ip), vehicle: saline 103 % of control | dose: 200.0 mg/kg/injection, schedule: Q04DX002 (ip), vehicle: saline 103 % of control | dose: 400.0 mg/kg/injection, schedule: Q04DX002 (ip), vehicle: saline 108 % of control

CCCC/C=C/Br
inactive: [5] 100 % of control | dose: 200.0 mg/kg/injection, schedule: Q01DX009 (ip), vehicle: acetone 101 % of control | dose: 200.0 mg/kg/injection, schedule: Q04DX003 (ip), vehicle: saline 108 % of control | dose: 400.0 mg/kg/injection, schedule: Q04DX003 (ip), vehicle: saline 105 % of control

C/C(=C/C1CC(=O)OC1=O)CC(C)(C)C (centres undefined)
inactive: dose: 222.0 mg/kg/injection, schedule: Q01DX Z (ip), vehicle: methylcellulose (MC) 108 % of control | dose: 333.0 mg/kg/injection, schedule: Q01DX Z (ip), vehicle: methylcellulose (MC) 92 % of control

CC1=NN(c2ccccc2)C(=O)C1
inactive: [2] 94 % of control | [6] 104 % of control | [3] 94 % of control | dose: 200.0 mg/kg/injection, schedule: Q01DX001 (ip), vehicle: saline with Tween-80 101 % of control | [4] 90 % of control | dose: 400.0 mg/kg/injection, schedule: Q01DX001 (ip), vehicle: saline with Tween-80 101 % of control | dose: 400.0 mg/kg/injection, schedule: Q01DX001 (ip), vehicle: saline 102 % of control
